“Also recorded” adds a separate entry of the source. Where two headings read alike, the source gives them in different places.
Legend:
DBA/2 mice [1] = assay: Anticonvulsant activity: audiogenic seizures in DBA/2 mice; format: in vivo; conditions: for effect on tonic phase of audiogenic seizures / effect on clonic phase of audiogenic seizures / effect on tonic and clonic phase of audiogenic seizures: 30 min after i.p. administration; for ED50: Mus musculus, ip, 0.5 h, 30 minutes after drug administration; for behavioural changes: all dosages tested
Text: DBA/2 mice weighing 6-12 g (22-26 days old; either sex, Harlan Italy Correzzana, Milano, Italy) are housed in groups of 8-10 under a 12-h light/dark cycle (lights on at 7:00 a.m.) with food and water available ad libitum. The experimental protocol is approved by University of Catanzaro Ethical Committee. All procedures are in compliance with the Nationals Institutes of Health Guide for Care and Use of Laboratory Animals (Publication No. 85-23, revised 1985) and European Communities Council Directive of 24 Nov. 1986 (86/609 EEC).
The experiments are performed according to the method previously described by De Sarro et al. (1984), Eur. J. Pharmacol., 104, 55-60. Compounds of the invention or vehicle (controls) are given intraperitoneally (i.p.) and orally (p.o.) as freshly sonicated solutions in methylcellulose 1%. For the […]; pretreatment time at 30 and 60 min., For oral treatment, all animals are pretreated either at 30 or 60 min using the compounds of the invention at doses of 0.1, 0.3, 3, 6 and 10 mg/kg p.o. At least 10 mice per dose are used. After pretreatment time, each mouse is placed under a hemispheric perspex dome (58 cm in diameter) and 1 min is allowed for habituation and assessment of locomotor activity. Animals are challenged with a 12-16 kHz sinusoidal tone at 109 dB. Seizure response is assessed by two independent observers. The sound evoked behaviour is coded using the following scale: 0=no response, 1=wild running, 2=clonus, 3=tonic flexor and/or extensor; 4=respiratory arrest, on the basis of the concordant opinion of the observers. […] The maximum response is recorded for each animal. Rectal temperature is recorded immediately prior to auditory testing using an Elektrolaboratoriet thermometer type T.E.3. Behavioral changes are observed during the period between drug administration and auditory testing. In these experiments separate vehicle-treated and drug-treated groups are used at each pretreatment time (15 min-60 min). Percentage of mice showing wild running, clonic or tonic phase and the duration of anticonvulsant activity are compared to control group and statistically analyzed.
Statistical comparison between groups of control and drug-treated DBA/2 mice is made using Fisher's exact probability test (incidence of the seizure phases). The percentage incidence of each phase of the audiogenic seizure is determined for each drug. These values are plotted against the corresponding doses by a computer construction of the dose-effect curves for calculation of ED50 (with 95% confidence limits). The ED50 values for each compound are calculated using a computer program of the method of Litchfield and Wilcoxon (1949). At least 32 animals are used to calculate each ED50 value.
For systemic injections and oral administrations, all compounds are given intraperitoneally (0.1 ml/10 g of body weight of the mouse) as a freshly prepared solution in methylcellulose 1%. In order to avoid the light sensitivity, weighing and handling are carried out under sodium vapor lamps and the substances are protected from light during the experiments.

DBA/2 mice [2] = assay: Interaction studies in DBA/2 mice: Compound 1 + vehicle, sumatriptan or SB 258741 (audiogenic seizures); format: in vivo; conditions: pre-treatment 3 mg/kg, i.p.; for effect of pre-treatment on the anti-epileptic activity (dose-response curve) of Compound 1: 5 min before Compound 1
Protocol: The experiments are performed according to the method previously described by De Sarro et al. (1984), Eur. J. Pharmacol., 104, 55-60. Compounds of the invention or vehicle (controls) are given intraperitoneally (i.p.) and orally (p.o.) as freshly sonicated solutions in methylcellulose 1%. For the i.p. treatment compounds of the invention are given at doses of 0.1, 0.3, 3, 10, 15, 20 and 30 mg/kg; pretreatment time at 30 and 60 min., For oral treatment, all animals are pretreated either at 30 or 60 min using the compounds of the invention at doses of 0.1, 0.3, 3, 6 and 10 mg/kg p.o. At least 10 mice per dose are used. After pretreatment time, each mouse is placed under a hemispheric perspex dome (58 cm in diameter) and 1 min is allowed for habituation and assessment of locomotor activity. Animals are challenged with a 12-16 kHz sinusoidal tone at 109 dB. Seizure response is assessed by two independent observers. The sound evoked behaviour is coded using the following scale: 0=no response, 1=wild running, 2=clonus, 3=tonic flexor and/or extensor; 4=respiratory arrest, on the basis of the concordant opinion of the observers. […] The maximum response is recorded for each animal. Rectal temperature is recorded immediately prior to auditory testing using an Elektrolaboratoriet thermometer type T.E.3. Behavioral changes are observed during the period between drug administration and auditory testing. In these experiments separate vehicle-treated and drug-treated groups are used at each pretreatment time (15 min-60 min). Percentage of mice showing wild running, clonic or tonic phase and the duration of anticonvulsant activity are compared to control group and statistically analyzed.

5-HT1A = target: T1, 5-HT1A (Rattus norvegicus, UniProt P19327); assay: In vivo 5-HT1A agonism: lower lip retraction (LLR); conditions: 60 minutes after oral administration
T1 construct: from tissue; host or cells: whole animal (in vivo behavioural test)
Protocol: Lower lip retraction was measured according to the method described by Berendsen et al., (Pharmacol. Biochem. Behav. 33, (1989), 821-827).

[3] = i.p. administration, read-out: ED50 Clonic seizures
[4] = i.p. administration, read-out: ED50 Wild running
[5] = i.p. administration, read-out: ED50 Tonic extension

T1 sequence (P19327 whole entry): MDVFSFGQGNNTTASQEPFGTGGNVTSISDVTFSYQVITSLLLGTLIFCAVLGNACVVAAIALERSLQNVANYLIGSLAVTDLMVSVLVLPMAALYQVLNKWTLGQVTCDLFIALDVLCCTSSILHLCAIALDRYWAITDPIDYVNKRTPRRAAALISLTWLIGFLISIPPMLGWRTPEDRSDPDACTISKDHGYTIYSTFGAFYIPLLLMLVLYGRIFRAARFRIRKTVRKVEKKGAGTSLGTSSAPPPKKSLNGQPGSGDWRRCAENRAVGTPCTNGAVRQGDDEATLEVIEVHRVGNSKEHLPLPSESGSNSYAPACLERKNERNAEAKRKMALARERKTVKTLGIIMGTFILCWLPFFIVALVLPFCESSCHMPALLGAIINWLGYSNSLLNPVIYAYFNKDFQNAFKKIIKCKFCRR

| SMILES | effect on tonic phase of audiogenic seizures (DBA/2 mice [1]; 0.3, 1, 3, 10 mg/kg) | effect on clonic phase of audiogenic seizures (DBA/2 mice [1]; 0.3, 1, 3, 10, 15 and 20 mg/kg) | effect on tonic phase of audiogenic seizures (DBA/2 mice [1]; 15 and 20 mg/kg) | ED50 (DBA/2 mice [1]; read-out: ED50 Tonic extension, i.p. administration) [mg/kg] | ED50 (DBA/2 mice [1]; [3]) [mg/kg] | ED50 (DBA/2 mice [1]; [4]) [mg/kg] | behavioural changes (DBA/2 mice [1]; i.p. administration) | effect of pre-treatment on the anti-epileptic activity (dose-response curve) of Compound 1 (DBA/2 mice [2]) | effect on tonic phase of audiogenic seizures (DBA/2 mice [1]; 15 mg/kg) | effect on clonic phase of audiogenic seizures (DBA/2 mice [1]; 1, 3, 10 and 15 mg/kg) | ED50 (DBA/2 mice [1]; [5]) [mg/kg] | ED50 (5-HT1A) [mg/kg] | effect on tonic and clonic phase of audiogenic seizures (DBA/2 mice [1]; 0.3, 1, 3, 5 and 7,5 mg/kg) | effect on tonic and clonic phase of audiogenic seizures (DBA/2 mice [1]; 10 and 15 mg/kg) | potency in shifting the dose-response curve of Compound 1, compared (DBA/2 mice [2]; 5 min before) |
| --- | --- | --- | --- | --- | --- | --- | --- | --- | --- | --- | --- | --- | --- | --- | --- |
| CCCN(CCC)C1CCc2cccc(O)c2C1 (centres unmarked) [Compound 8-OH-DPAT, 8-hydroxy-2-(di-n-propylamino)tetralin] | did not significantly antagonized | did not significantly antagonized | able to significantly (P<0.01 and P<0.05) antagonize | 15 | > 20 | > 20 | At none of the dosages tested |  |  |  |  |  |  |  |  |
| Cc1cccc(S(=O)(=O)N2CCC[C@@H]2CCN2CCC(C)CC2)c1 [SB258741] |  |  |  |  | > 15 | > 15 | At none of the dosages tested | shift the dose-response curve of COMPOUND 1 to the right; also recorded: partly antagonized | able to significantly (P<0.01) antagonize | did not significantly antagonize | ~12 |  |  |  |  |
| O=C(NCCN1CCN(c2cccc3c2OC[C@H](CO)O3)CC1)c1ccc(F)cc1 [flesinoxan] |  |  |  |  | 9.37 | > 15 | At none of the dosages tested |  |  |  | 7.74 | 0.22 | did not significantly antagonized | able to significantly (P<0.0.1) antagonize |  |
| CNS(=O)(=O)Cc1ccc2[nH]cc(CCN(C)C)c2c1 [sumatriptan, reference compound] |  |  |  |  |  |  |  | shift the dose-response curve of COMPOUND 1 to the right; also recorded: partly antagonized |  |  |  |  |  |  | more potent than SB 258741 |

From US20050215551A1, “1-[2H-1-benzopyran-2-one-8-yl]- piperazine derivatives for the treatment of movement disorders” (SOLVAY PHARMACEUTICALS B.V., priority 2004, published 2005)
